Laboratory results from US8759318B2, “Phosphoramidate derivatives of guanosine nucleoside compounds for treatment of viral infections” (Inhibitex, Inc., priority 2009, dated 2014).
Where two headings read alike, the source gives them in different places.

What was measured:
[1] = system: Yellow Fever Virus strain 17D; assay: microbe, parasite or virus in culture; format: cell-based; conditions: HeLa
HSV-1 strain HF = assay: Cytoprotection assay, HSV-1; format: cell-based; conditions: Human alphaherpesvirus 1, Vero
Influenza B strain Lee = assay: Cytoprotection assay, Influenza B; format: cell-based; conditions: Influenza B virus, MDCK
in vitro [2] = conditions: dog
MDCK cells = conditions: Influenza B assay
[3] = system: Influenza A strain Hong Kong; assay: Cytoprotection assay, Influenza A; format: cell-based; conditions: Influenza A virus, MDCK
[4] = Compound cytotoxicity in cytoprotection assay (MTS), MDBK; conditions: cow, MDBK cells
[5] = system: Dengue Virus Type 2 strain New Guinea; assay: Cytoprotection assay, Dengue virus; format: cell-based; conditions: Vero C1008
Poliovirus strain Chat = assay: microbe, parasite or virus in culture; format: cell-based, Poliovirus I; conditions: Enterovirus C, Vero
[6] = system: Coxsackie virus strain B4; assay: Cytoprotection assay, Coxsackie virus; format: cell-based; conditions: Enterovirus B, B4, Vero
[7] = system: West Nile virus strain NY-99; assay: Cytoprotection assay, West Nile virus; format: cell-based; conditions: West Nile Virus NY-99, Vero
HIV-1 Strain IIIB = assay: Cytoprotection assay for HIV; format: cell-based; conditions: Human immunodeficiency virus 1; HIV-1 IIIB, MT-4
Protocol: Activity against other viruses. A representative compound, Example 20, Compound F, was tested against a panel of other RNA and DNA viruses. Compound F was synthesized as described in the Experimental section. Experimental conditions for growing the cells and viruses are listed below. Unless otherwise indicated, cells and viruses were obtained from the American Type Culture Collection (ATCC, Rockville, Md.).
(§1) MT-4 cells ((Catalog #120) Human T-cell Leukemia) were obtained from the NIH AIDS Reference Reagent Program and were used in cytoprotection assays with HIV-1 Strain IIIB (Southern Research). They were grown in RPMI-1640 medium supplemented with 10% FBS.
Cytoprotection Assay for HIV:_MT-4 cells were sub-cultured one day prior to testing. Cells were plated in 96 well cell culture plates at a seeding density of 6×10^5 cells/ml (3×10^4 cells/well). […] Cytoprotection and compound cytotoxicity were assessed by XTT assay (Cat#11-465-015-001, Roche Diagnostics). The plates were read spectrophotometrically at 450/650 nm with a Molecular Devices SpectraMax M2 plate reader. The percent reduction in viral CPE was determined and reported as IC50, CC50 and a calculated TI. Samples were evaluated for antiviral efficacy and cytotoxicity with triplicate measurements using 9 concentrations at 2-fold dilutions. […]

[8] = Protide stability in normal plasma, human; format: in vitro ADME; conditions: 37° C.
Protocol: (§2) Selected nucleoside 5′-phosphoramidates were examined for stability in human, cynomolgous monkey, rat and mouse plasma at 37° C. at both 30 min and 90 min time points.
(§3) Protide Stability in Normal Plasma: Plasma samples were prepared for analysis as follows. 50 μl of each test sample were distributed a 96-well V-bottom plate. 200 μl of acetonitrile containing 10 ng/ml of an internal standard was added to each plasma sample. The precipitated samples were centrifuged at 2500 rpm, 4° C. for 20 minutes in a Sorvall RT6000S centrifuge (Thermo Scientific, Waltham Mass.) and 100 μl of supernatant from each sample was transferred into a 96 deep well plate followed by the addition of 100 μl H2O to each sample. Samples were covered, mixed well by vortexing and maintained at 2-8° C. before and during analysis. 15 μl of each test sample was analyzed for protide concentrations by liquid chromatography coupled to tandem mass spectrometry (LC-MS/MS). Liquid chromatography was performed with an Agilent 1100 Series HPLC system equipped with a Synergi 4 μm Polar-RP, 30×2.0 mm column (Phenomenex, Torrance, Calif.). The HPLC system was coupled to an API 4000 triple quadrupole mass spectrometer (Applied Biosystems, Framingham, Mass.). Mass spectrometry was performed in positive ion mode and data was analyzed using Analyst® v1.4.2 software (Applied Biosystems, Framingham, Mass.). Data was presented as the percentage of compound recovered as compared to the 0 time point control.

in vitro [9] = conditions: African green monkey
[10] = system: Bovine Viral Diarrhea Virus (BVDV) strain NADL; assay: Cytoprotection assay, BVDV; format: cell-based; conditions: Bovine viral diarrhea virus isolates and strains, MDBK
[11] = Mouse PK: 2'-C-methylguanosine triphosphate levels in liver; conditions: 2'-C-methylguanosine triphosphate in mouse liver, 50 mg/kg PO
[12] = Protide stability in normal plasma, rat; format: in vitro ADME; conditions: 37° C.
Protocol: as §2, §3

[13] = Protide stability in normal plasma, cynomolgous monkey; format: in vitro ADME; conditions: 37° C.
Protocol: as §2, §3

[14] = Compound cytotoxicity in HIV cytoprotection assay (XTT); format: cell-based; conditions: human, MT-4 cells; MT-4, HIV-1 assay
Protocol: as §1
Cytoprotection Assay for HIV:_MT-4 cells were sub-cultured one day prior to testing. Cells were plated in 96 well cell culture plates at a seeding density of 6×10^5 cells/ml (3×10^4 cells/well). […] Virus and cells were mixed in the presence of serial dilutions of test compound and incubated for 5 days at 37° C., 5% CO2. Each assay plate contained cell control wells (cells only), virus control wells (cells plus virus), compound toxicity control wells (cells plus compound only) as well as experimental wells (compound plus cells plus virus). Cytoprotection and compound cytotoxicity were assessed by XTT assay (Cat#11-465-015-001, Roche Diagnostics). The plates were read spectrophotometrically at 450/650 nm with a Molecular Devices SpectraMax M2 plate reader. The percent reduction in viral CPE was determined and reported as IC50, CC50 and a calculated TI. Samples were evaluated for antiviral efficacy and cytotoxicity with triplicate measurements using 9 concentrations at 2-fold dilutions. Each assay included Raltegravir (MK0518) as an antiviral positive control compound.

HeLa cells = conditions: human
[15] = system: HCV replicon (Genotype 1b); assay: Luciferase genotype 1b replicon potency assay; conditions: Hepatitis C virus, GETYPE1B, read-out: IC50 μM, HCV genotype 1b luciferase replicon, Renilla luciferase reporter
[16] = system: Vaccinia Strain Western Reserve; assay: microbe, parasite or virus in culture; format: cell-based; conditions: Orthopoxvirus vaccinia, Vero C1008

Question: For `COc1nc(N)nc2c1ncn2C1O[C@H](COP(=O)(N[C@@H](C)C(=O)OCC(C)(C)C)Oc2cccc3ccccc23)[C@@H](O)[C@@]1(C)O` (some centres unmarked) [Example 20], which EC50 [1] is on record?
Answer: 0.418 µM

Question: And the EC50 (HSV-1 strain HF)?
Answer: > 10 µM

Question: And the CC50 (Vero cells; African green monkey)?
Answer: > 10 µM

Question: And the CC50 (Vero cells; Vero, HSV-1 assay)?
Answer: > 10 µM

Question: What about the CC50 (Vero cells; Vero, RSV assay) of the same compound?
Answer: > 10 µM

Question: What about the EC50 (Influenza B strain Lee) of the same compound?
Answer: > 10 µM

Question: And the CC50 (in vitro [2])?
Answer: > 10 µM

Question: What about the CC50 (MDCK cells) of the same compound?
Answer: > 10 µM

Question: What about the EC50 [3] of the same compound?
Answer: > 10 µM

Question: What about the CC50 at 7 days [4] of the same compound?
Answer: > 10 µM

Question: And the EC50 [5]?
Answer: 1.81 µM

Question: And the EC50 (Poliovirus strain Chat)?
Answer: 4.71 µM

Question: And the EC50 [6]?
Answer: > 10 µM

Question: And the EC50 [7]?
Answer: 1.69 µM

Question: What about the EC50 (HIV-1 Strain IIIB) of the same compound?
Answer: > 10 µM

Question: And the “% Compound Remaining Compared to %100 Acetonitrile Control” value ([8]; 30 min)?
Answer: 94.0%

Question: What about the “% Compound Remaining Compared to %100 Acetonitrile Control” value ([8]; 1.5 h) of the same compound?
Answer: 101.5%

Question: And the CC50 (in vitro [9])?
Answer: > 10 µM

Question: What about the EC50 [10] of the same compound?
Answer: 0.748 µM

Question: What about the AUC0-6 [11] of the same compound?
Answer: 31940 ng·h/g

Question: And the AUC0-24 [11]?
Answer: 59353 ng·h/g

Question: What about the “% Compound Remaining Compared to %100 Acetonitrile Control” value ([12]; 30 min) of the same compound?
Answer: 0%

Question: What about the “% Compound Remaining Compared to %100 Acetonitrile Control” value ([12]; 1.5 h) of the same compound?
Answer: 0%

Question: And the “% Compound Remaining Compared to %100 Acetonitrile Control” value ([13]; 30 min)?
Answer: 97.0%

Question: And the “% Compound Remaining Compared to %100 Acetonitrile Control” value ([13]; 1.5 h)?
Answer: 94.0%

Question: What about the CC50 at 5 days [14] of the same compound?
Answer: 11 µM

Question: What about the CC50 (HeLa cells) of the same compound?
Answer: > 10 µM

Question: And the IC50 [15]?
Answer: 0.001 µM

Question: And the EC50 [16]?
Answer: 4.52 µM
